Key:
[1] = Parallel artificial membrane permeability assay (PAMPA); type: in vitro ADME
Method: Potential solubility data were obtained with a pSOL model 3 instrument (pION INC, Cambridge, Massachusetts, USA). Cell membrane permeability was determined on a PAMPA Explorer instrument (pION).
Subsequently, the permeability of cell membranes was measured by standard parallel artificial membrane permeability assay (PAMPA).

[2] = system: Nrf2-ARE in RAW264.7 cells; experiment: ARE inductivity under LPS stimulation; type: cell-based, mouse; settings: Mus musculus, RAW264.7, read-out: EC50 of ARE inductivity
[3] = system: RAW264.7 cells; experiment: IL-1β, IL-6, TNF-α and NO assays in cell culture supernatant; type: cell-based, mouse; settings: Mus musculus, RAW264.7, read-out: EC50 for reduction of extracellular NO concentration
Method: IL-1β (IL-1β (m) ELISA kit, EK0394, Boster), IL-18 (IL-18 (m) ELISA kit, EMC011, NeoBioscience), IL-6 (IL-6 (m) ELISA kit EK0411, Boster), TNF-α (TNF-α (m) ELISA kit, EK0527, Boster) and NO (nitrate/nitrite assay kit, S0023, Beyotime, China) were tested using commercially available kits according to the manufacturer's instructions.
Then, several inflammatory mediators closely related to ROS, including IL-1β, IL-6, TNF-α and NO, were further evaluated.

[4] = Drug release rate by HPLC (H2O2 activation of prodrug); type: physicochemical; settings: in the presence of H2O2, 12 h, UPLC/HRMS
Method: The target compound was dissolved in DMSO to give a 10 mM stock solution, which was then stored at −20° C. The final concentration was brought to 50 μM by adding the target compound (10 mM) to phosphate buffered saline (PBS) (10 mM, pH 7.4), and H2O2 was added. The solution was well vortexed, and then incubated at 37° C. Samples were taken at appropriate time intervals and analyzed by HPLC directly after injection, and the peak areas were recorded to calculate the percentage of the compound. The procedure was repeated three times. The following Agilent 1260 HPLC and DAD detectors were used: Agilent C18 column (4.6×150 mm, 3.5 μm); mobile phase: 70% methanol; flow rate: 0.5 mL/min. A standard curve of the compound was plotted against concentration.
After treatment with 10 mM H2O2, the prodrug pro2 was activated with prolonged incubation time and the active parent compound 2 was completely released within 3 h (HPLC-determined conversion >98%, (B) of FIG. 1 and (C) of FIG. 1).

| Compound | Pe at pH 7.4 [1] | Papp ([1]; pH 7.4, read-out: Pe at pH 7.4) | EC50 [2] | EC50 [3] | production of the active parent compound 1 [4] |
| --- | --- | --- | --- | --- | --- |
| COc1ccc(S(=O)(=O)Nc2ccc(N(CC(=O)O)S(=O)(=O)c3ccc(OC)cc3)c3ccccc23)cc1 [Compound 2, N-(4-((4-methoxyphenyl)sulfonamido)naphthalen-1-yl)-N-((4-methoxyphenyl)sulfonyl)glycine] | 0.80 10^−6 cm/s | 0.8 ×10⁻⁶ cm/s | > 4.52 µM | > 0.12 µM |  |
| COc1ccc(S(=O)(=O)N(CC(=O)N2CCSC2=O)c2ccc(N(CC(=O)N3CCSC3=O)S(=O)(=O)c3ccc(OC)cc3)c3ccccc23)cc1 [pro1, N,N′-(naphthalene-1,4-diyl)bis(4-methoxy-N-(2-oxo-2-(2-oxothiazolidin-3-yl)ethyl)benzenesulfonamide)] |  |  |  |  | no production of the active parent compound 1 could be observed |

— patent US12383535B2, “Hydrogen peroxide-responsive KEAP1-NRF2 ppi inhibitor prodrug, and preparation method therefor” (CHINA PHARMACEUTICAL UNIVERSITY, priority 2019, dated 2025)
